Experimental data: patent US9271960B2, “Tetrahydrocarbazoles as active agents for inhibiting VEGF production by translational control” (PTC Therapeutics, Inc., priority 2004, dated 2016)
Counter-ions that a name gives are not always drawn. Like-named read-outs stand apart in the source and are kept apart here.

System: VEGF
Experiment: Hypoxia-inducible endogenous VEGF expression ELISA in HeLa cells
Assay type: cell-based
Conditions: VEGF protein by ELISA
Method in brief: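 HeLa cells held 24–48 h in hypoxia (1% O2) with a concentration series of compound; VEGF secreted into media quantified by ELISA against a standard curve. Parallel Cell Titer Glo viability under identical conditions gives CC50; EC50 from percent-inhibition curves.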

[1] = Homo sapiens, HeLa, purchased compounds 156-188, hypoxic conditions, read-out: ELISA Activity
[2] = Homo sapiens, HeLa, purchased compounds 156-188, hypoxic conditions, read-out: ELISA EC50
[3] = Homo sapiens, HeLa, compounds 191-239, hypoxic conditions, read-out: ELISA Activity EC50

| EC50 [3] [nM] | Structure (SMILES) | also measured |
| --- | --- | --- |
|  | Cc1ccc2c(c1)c1c3n2CCN(C(=O)c2ccccc2Cl)C3CCC1 (stereo not shown) [Compound 171, (2-Chloro-phenyl)-(8-methyl-1,2,3a,4,5,6-hexahydro-pyrazino[3,2,1-jk]carbazol-3-yl)-methanone] | EC50 [1]: > 1000 nM; EC50 [2]: > 10000 nM |
|  | COc1ccc(NC(=S)N2CCn3c4c(c5cc(C)ccc53)CCCC42)cc1 (stereo not shown) [Compound 172, 8-Methyl-1,2,3a,4,5,6-hexahydro-pyrazino[3,2,1-jk]carbazole-3-carbothioic acid (4-methoxy-phenyl)-amide] | EC50 [1]: > 1000 nM; EC50 [2]: > 10000 nM |
|  | Cc1ccc2c(c1)c1c3n2CCCNC3CCC1 (stereo not shown) [Compound 173, 11-Methyl-1,2,3,3a,4,5,6,7-octahydro-[1,4]diazepino[3,2,1-jk]carbazole] | EC50 [1]: > 1000 nM; EC50 [2]: > 10000 nM |
|  | CC(=O)N(Cc1ccccc1)C1CCCc2c1[nH]c1ccc(C)cc21 (stereo not shown) [Compound 174, N-Benzyl-N-(6-methyl-2,3,4,9-tetrahydro-1H-carbazol-1-yl)-acetamide] | EC50 [1]: > 1000 nM; EC50 [2]: > 10000 nM |
|  | CC(=O)N1CCn2c3c(c4cc(C)ccc42)CCCC31 (stereo not shown) [Compound 175, 1-(8-Methyl-1,2,3a,4,5,6-hexahydro-pyrazino[3,2,1-jk]carbazol-3-yl)-ethanone] | EC50 [1]: > 1000 nM; EC50 [2]: > 10000 nM |
|  | Cc1ccc2c(c1)c1c3n2CCN(CC(C)O)C3CCC1 (stereo not shown) [Compound 176, 1-(8-Methyl-1,2,3a,4,5,6-hexahydro-pyrazino[3,2,1-jk]carbazoI-3-yl)-propan-2-ol] | EC50 [1]: > 1000 nM; EC50 [2]: > 10000 nM |
|  | Cc1ccc2[nH]c3c(c2c1)CCCC3NCCCO (stereo not shown) [Compound 177, 3-(6-Methyl-2,3,4,9-tetrahydro-1H-carbazol-1-ylamino)-propan-1-ol] | EC50 [1]: > 1000 nM; EC50 [2]: > 10000 nM |
|  | CC(=O)NC1CCCc2c1[nH]c1ccc(C)cc21 (stereo not shown) [Compound 178, N-(6-Methyl-2,3,4,9-tetrahydro-1H-carbazol-1-yl)-acetamide] | EC50 [1]: > 1000 nM; EC50 [2]: > 10000 nM |
|  | Cc1ccc2c(c1)c1c3n2CCN(C(C)c2ccccc2)C3CCC1 (stereo not shown) [Compound 179, 8-Methyl-3-(1-phenyl-ethyl)-2,3,3a,4,5,6-hexahydro-1H-pyrazino[3,2,1-jk]carbazole] | EC50 [1]: > 1000 nM; EC50 [2]: > 10000 nM |
|  | Cc1ccc2c(c1)c1c3n2CCCN(Cc2cccc(Cl)c2)C3CCC1 (stereo not shown) [Compound 180, 4-(3-Chloro-benzyl)-11-methyl-1,2,3,3a,4,5,6,7-octahydro-[1,4]diazepino[3,2,1-jk]carbazole] | EC50 [1]: > 1000 nM; EC50 [2]: > 10000 nM |
|  | CC(=O)Nc1ccc(CN2CCCn3c4c(c5cc(C)ccc53)CCCC42)cc1 (stereo not shown) [Compound 181, N-[4-(11-Methyl-1,2,3,3a,6,7-hexahydro-5H-[1,4]diazepino[3,2,1-jk]carbazol-4-ylmethyl)-phenyl]-acetamide] | EC50 [1]: > 1000 nM; EC50 [2]: > 10000 nM |
|  | CC(=O)SCCC(=O)N1CCn2c3c(c4cc(C)ccc42)CCCC31 (stereo not drawn) [Compound 182, Thioacetic acid S-[3-(8-methyl-1,2,3a,4,5,6-hexahydro-pyrazino[3,2,1-jk]carbazol-3-yl)-3-oxo-propyl] ester] | EC50 [1]: > 1000 nM; EC50 [2]: > 10000 nM |
|  | CC(=O)N1CCn2c3c(c4cc(C(=O)O)ccc42)CCCC31 (stereo not shown) [Compound 184, 3-Acetyl-2.3,3a,4,5,6-hexahydro-1H-pyrazino[3,2,1-jk]carbazole-8-carboxylic acid] | EC50 [1]: > 1000 nM; EC50 [2]: > 10000 nM |
|  | CCNC1CCCc2c1[nH]c1ccc(C)cc21 (stereo not shown) [Compound 185, Ethyl-(6-methyl-2,3,4,9-tetrahydro-1H-carbazol-1-yl)-amine] | EC50 [1]: > 1000 nM; EC50 [2]: > 10000 nM |
|  | OCCNC1CCCc2c1[nH]c1ccc(Br)cc21 (stereo not shown) [Compound 186, 2-(6-Bromo-2,3,4,9-tetrahydro-1H-carbazol-1-ylamino)-ethanol hydrochloride] | EC50 (purchased compounds 156-188, hypoxic conditions, hydrochloride, read-out: ELISA EC50): 12200 nM; EC50 (purchased compounds 156-188, hypoxic conditions, read-out: ELISA Activity): > 1000 nM |
|  | COc1ccc(Oc2ccc3c(c2)c2c4n3CCNC4CCC2)cc1 (stereo not shown) [Compound 187, 8-(4-Methoxy-phenoxy)-2,3,3a,4,5,6-hexahydro-1H-pyrazino[3,2,1-jk]carbazole methanesulfonic acid] | EC50 [1]: > 1000 nM; EC50 [2]: 18000 nM |
| < 10 | Cc1cc(C(=O)NC2CCCc3c2[nH]c2ccc(Br)cc32)no1 (stereo not shown) [Compound 191] |  |
| < 10 | COc1ccc(C2CCCc3c2[nH]c2ccc(Br)cc32)cc1 (stereo not shown) [Compound 192] |  |
| 10 to 40 | Oc1ccc(C2CCCc3c2[nH]c2ccc(Br)cc32)cc1 (stereo not shown) [Compound 193] |  |
| < 10 | Brc1ccc2[nH]c3c(c2c1)CCCC3c1ccc(OCC2CO2)cc1 (stereo not shown) [Compound 194] |  |
| < 10 | OC(COc1ccc(C2CCCc3c2[nH]c2ccc(Br)cc32)cc1)Cn1ccnc1 (stereo not shown) [Compound 195] |  |

| EC50 [3] [nM] | Structure (SMILES) | also measured |
| --- | --- | --- |
| < 10 | OC(COc1ccc(C2CCCc3c2[nH]c2ccc(Br)cc32)cc1)CN1CCOCC1 (stereo not shown) [Compound 196] |  |
| < 10 | CC(=O)N1CCN(CC(O)COc2ccc(C3CCCc4c3[nH]c3ccc(Br)cc43)cc2)CC1 (stereo not shown) [Compound 197] |  |
| < 10 | COCCN(CCOC)CC(O)COc1ccc(C2CCCc3c2[nH]c2ccc(Br)cc32)cc1 (stereo not shown) [Compound 198] |  |
| < 10 | OC(COc1ccc(C2CCCc3c2[nH]c2ccc(Br)cc32)cc1)CN1CCSCC1 (stereo not shown) [Compound 199] |  |
| < 10 | COCCN(C)CC(O)COc1ccc(C2CCCc3c2[nH]c2ccc(Br)cc32)cc1 (stereo not shown) [Compound 200] |  |
| 10 to 40 | CN1CCN(CC(O)COc2ccc(C3CCCc4c3[nH]c3ccc(Br)cc43)cc2)CC1 (stereo not shown) [Compound 201] |  |
| < 10 | OC(COc1ccc(C2CCCc3c2[nH]c2ccc(Br)cc32)cc1)Cn1ccnn1 (stereo not shown) [Compound 202] |  |
| 10 to 40 | OC(COc1ccc(C2CCCc3c2[nH]c2ccc(Br)cc32)cc1)Cn1cncn1 (stereo not shown) [Compound 203] |  |
| 10 to 40 | CC(=O)N1CCN(CCCOc2ccc(C3CCCc4c3[nH]c3ccc(Br)cc43)cc2)CC1 (stereo not shown) [Compound 204] |  |
| 10 to 40 | COCCN(CCCOc1ccc(C2CCCc3c2[nH]c2ccc(Br)cc32)cc1)CCOC (stereo not shown) [Compound 205] |  |
| < 10 | Brc1ccc2[nH]c3c(c2c1)CCCC3c1ccc(OCCCN2CCSCC2)cc1 (stereo not shown) [Compound 206] |  |
| 10 to 40 | COCCN(C)CCCOc1ccc(C2CCCc3c2[nH]c2ccc(Br)cc32)cc1 (stereo not shown) [Compound 207] |  |
| 40 to 200 | CN1CCN(CCCOc2ccc(C3CCCc4c3[nH]c3ccc(Br)cc43)cc2)CC1 (stereo not shown) [Compound 208] |  |
| < 10 | Brc1ccc2[nH]c3c(c2c1)CCCC3c1ccc(OCCCn2ccnn2)cc1 (stereo not shown) [Compound 209] |  |
| < 10 | Brc1ccc2[nH]c3c(c2c1)CCCC3c1ccc(OCCCN2CCOCC2)cc1 (stereo not shown) [Compound 210] |  |
| < 10 | Brc1ccc2[nH]c3c(c2c1)CCCC3c1ccc(OCCCn2ccnc2)cc1 (stereo not shown) [Compound 211] |  |
| < 10 | OCC(O)COc1ccc(C2CCCc3c2[nH]c2ccc(Br)cc32)cc1 (stereo not shown) [Compound 212] |  |
| 10 to 40 | OCC(O)COc1ccc(C2CCCc3c2[nH]c2ccc(Cl)cc32)cc1 (stereo not shown) [Compound 213] |  |
| 40 to 200 | CC(=O)N1CCN(CC(O)COc2ccc(C3CCCc4c3[nH]c3ccc(Cl)cc43)cc2)CC1 (stereo not shown) [Compound 214] |  |
| 10 to 40 | OC(COc1ccc(C2CCCc3c2[nH]c2ccc(Cl)cc32)cc1)CN1CCOCC1 (stereo not shown) [Compound 215] |  |
| 10 to 40 | COCCN(CCOC)CC(O)COc1ccc(C2CCCc3c2[nH]c2ccc(Cl)cc32)cc1 (stereo not shown) [Compound 216] |  |

| EC50 [3] [nM] | Structure (SMILES) | also measured |
| --- | --- | --- |
| 10 to 40 | OC(COc1ccc(C2CCCc3c2[nH]c2ccc(Cl)cc32)cc1)CN1CCSCC1 (stereo not shown) [Compound 217] |  |
| 10 to 40 | COCCN(C)CC(O)COc1ccc(C2CCCc3c2[nH]c2ccc(Cl)cc32)cc1 (stereo not shown) [Compound 218] |  |
| 10 to 40 | CN1CCN(CC(O)COc2ccc(C3CCCc4c3[nH]c3ccc(Cl)cc43)cc2)CC1 (stereo not shown) [Compound 219] |  |
| 10 to 40 | OC(COc1ccc(C2CCCc3c2[nH]c2ccc(Cl)cc32)cc1)Cn1ccnc1 (stereo not shown) [Compound 220] |  |
| 10 to 40 | OC(COc1ccc(C2CCCc3c2[nH]c2ccc(Cl)cc32)cc1)Cn1ccnn1 (stereo not shown) [Compound 221] |  |
| 40 to 200 | OC(COc1ccc(C2CCCc3c2[nH]c2ccc(Cl)cc32)cc1)Cn1cncn1 (stereo not shown) [Compound 222] |  |
| 40 to 200 | Oc1ccc(C2CCCc3c2[nH]c2ccc(Cl)cc32)cc1 (stereo not shown) [Compound 223] |  |
| < 10 | Clc1ccc2[nH]c3c(c2c1)CCCC3c1ccc(OCC2CO2)cc1 (stereo not shown) [Compound 224] |  |
| 40 to 200 | OC(COc1ccc(C2CCCCc3c2[nH]c2ccc(Br)cc32)cc1)CN1CCOCC1 (stereo not shown) [Compound 225] |  |
| 40 to 200 | OC(COc1ccc(C2CCCCc3c2[nH]c2ccc(Br)cc32)cc1)Cn1cncn1 (stereo not shown) [Compound 226] |  |
| < 10 | OC(COc1ccc(C2CCCc3c2[nH]c2ccc(Br)cc32)cc1)Cn1nccn1 (stereo not shown) [Compound 227] |  |
| 10 to 40 | OC(COc1ccc(C2CCCCc3c2[nH]c2ccc(Cl)cc32)cc1)CN1CCOCC1 (stereo not shown) [Compound 228] |  |
| 10 to 40 | COc1ccc(C2CCCCc3c2[nH]c2ccc(Cl)cc32)cc1 (stereo not shown) [Compound 229] |  |
| < 10 | Oc1ccc(C2CCCCc3c2[nH]c2ccc(Cl)cc32)cc1 (stereo not shown) [Compound 230] |  |
| < 10 | OC(COc1ccc(C2CCCCc3c2[nH]c2ccc(Cl)cc32)cc1)Cn1ccnc1 (stereo not shown) [Compound 231] |  |
| 10 to 40 | OC(COc1ccc(C2CCCCc3c2[nH]c2ccc(Cl)cc32)cc1)Cn1ccnn1 (stereo not shown) [Compound 232] |  |
| < 10 | OC(COc1ccc(C2CCCCc3c2[nH]c2ccc(Cl)cc32)cc1)CN1CCSCC1 (stereo not shown) [Compound 233] |  |
| < 10 | COCCN(CCOC)CC(O)COc1ccc(C2CCCCc3c2[nH]c2ccc(Cl)cc32)cc1 (stereo not shown) [Compound 234] |  |
| 10 to 40 | OC(COc1ccc(C2CCCCc3c2[nH]c2ccc(Cl)cc32)cc1)Cn1cncn1 (stereo not shown) [Compound 235] |  |
| 40 to 200 | OC1CCc2c([nH]c3ccc(Br)cc23)C1c1ccccc1 (stereo not shown) [Compound 236] |  |
| 200 to 1000 | Cc1ccc(C2c3[nH]c4ccc(Br)cc4c3CCC2O)cc1 (stereo not shown) [Compound 237] |  |
